# Several values for one entry are separate records, joined by “and”; a condition that tells them apart may be missing. Equal values may be shown once. Inconclusive results and toxic doses are left out.
# Test system: CD2F1 mice, L1210 leukemia ip, survival T/C
# Test: NCI In Vivo Anticancer Drug Screen. Data for tumor model L1210 Leukemia (intraperitoneal) in CD2F1 (CDF1) mice
# Details: higher = longer survival
# Procedure, shortened: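 Ratio T/C, where T is the treated-group value and C the vehicle-dosed control value, from mice implanted with a transplantable tumor.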
# [1] = endpoint: mean survival time, dose: 100.0 mg/kg/injection, schedule: Q01DX001 (ip), vehicle: saline with Tween-80
# [2] = endpoint: mean survival time, dose: 200.0 mg/kg/injection, schedule: Q01DX001 (ip), vehicle: saline with Tween-80
# [3] = endpoint: mean survival time, dose: 100.0 mg/kg/injection, schedule: Q04DX003 (ip), vehicle: saline with Tween-80
# [4] = endpoint: mean survival time, dose: 200.0 mg/kg/injection, schedule: Q04DX003 (ip), vehicle: saline with Tween-80
# [5] = endpoint: mean survival time, dose: 400.0 mg/kg/injection, schedule: Q04DX003 (ip), vehicle: saline with Tween-80
# [6] = endpoint: mean survival time, dose: 100.0 mg/kg/injection, schedule: Q01DX009 (ip), vehicle: saline with Tween-80
# [7] = endpoint: mean survival time, dose: 200.0 mg/kg/injection, schedule: Q01DX009 (ip), vehicle: saline with Tween-80
# [8] = endpoint: mean survival time, dose: 400.0 mg/kg/injection, schedule: Q01DX009 (ip), vehicle: saline with Tween-80
# [9] = endpoint: mean survival time, dose: 100.0 mg/kg/injection, schedule: Q04DX003 (ip), vehicle: saline
# [10] = endpoint: mean survival time, dose: 200.0 mg/kg/injection, schedule: Q04DX003 (ip), vehicle: saline
# [11] = endpoint: mean survival time, dose: 100.0 mg/kg/injection, schedule: Q01DX001 (ip), vehicle: saline
# [12] = endpoint: mean survival time, dose: 200.0 mg/kg/injection, schedule: Q01DX001 (ip), vehicle: saline
# [13] = endpoint: mean survival time, dose: 400.0 mg/kg/injection, schedule: Q01DX001 (ip), vehicle: saline
structure (smiles),measurement,setting,value
CCC(=O)Nc1cccc(OC(=O)NC(C)(C)CC(C)(C)C)c1,T/C,[1],98 % of control
same,T/C,[2],98 % of control
same,T/C,"endpoint: mean survival time, dose: 400.0 mg/kg/injection, schedule: Q01DX001 (ip), vehicle: saline with Tween-80",100 % of control
Cc1ccc(N2OCCN(C(=O)c3ccc([N+](=O)[O-])cc3)C2c2ccccc2)cc1 (centres undefined),T/C,[3],98 % of control
same,T/C,[4],97 % of control
same,T/C,[5],98 % of control
CNc1ccc(C(=O)O)cc1OC,T/C,[3],100 % of control
same,T/C,[4],100 % of control
same,T/C,[5],103 % of control
CCOC(=O)Nc1cc2c3ccccc3ncc2c2ccccc12,T/C,"endpoint: mean survival time, dose: 25.0 mg/kg/injection, schedule: Q04DX003 (ip), vehicle: saline with Tween-80",94 % of control
same,T/C,"endpoint: mean survival time, dose: 50.0 mg/kg/injection, schedule: Q04DX003 (ip), vehicle: saline with Tween-80",86 % of control
same,T/C,[3],87 % of control
same,T/C,[4],89 % of control
same,T/C,[5],101 % of control
O=C(NC(Cc1c[nH]c2ccccc12)C(=O)O)c1ccccc1 (centres undefined),T/C,[6],108 % of control
same,T/C,[3],109 % of control
same,T/C,[7],100 % of control
same,T/C,[4],98 % of control
same,T/C,[8],104 % of control
same,T/C,[5],103 % of control
same,T/C,"endpoint: mean survival time, dose: 600.0 mg/kg/injection, schedule: Q01DX009 (ip), vehicle: saline with Tween-80",108 % of control
O=C1NC(=O)C(CCCCO)N1 (centres undefined),T/C,[1],101 % of control
same,T/C,[2],106 % of control
same,T/C,"endpoint: mean survival time, dose: 300.0 mg/kg/injection, schedule: Q01DX001 (ip), vehicle: saline with Tween-80",98 % of control
COC(=O)CC(CC(=O)c1ccccc1)c1ccccc1 (centres undefined),T/C,"endpoint: mean survival time, dose: 50.0 mg/kg/injection, schedule: Q01DX009 (ip), vehicle: distilled water + Tween-80",94 % of control
same,T/C,"endpoint: mean survival time, dose: 50.0 mg/kg/injection, schedule: Q01DX009 (ip), vehicle: saline with Tween-80",95 % of control and 98 % of control
same,T/C,"endpoint: mean survival time, dose: 100.0 mg/kg/injection, schedule: Q01DX009 (ip), vehicle: distilled water + Tween-80",90 % of control
same,T/C,[6],100 % of control and 106 % of control
same,T/C,"endpoint: mean survival time, dose: 200.0 mg/kg/injection, schedule: Q01DX009 (ip), vehicle: distilled water + Tween-80",90 % of control
same,T/C,[7],97 % of control and 100 % of control
same,T/C,"endpoint: mean survival time, dose: 400.0 mg/kg/injection, schedule: Q01DX009 (ip), vehicle: distilled water + Tween-80",90 % of control
same,T/C,[8],97 % of control and 98 % of control
CCCc1ccc(NS(=O)(=O)c2ccc(C)cc2)cc1,T/C,"endpoint: mean survival time, dose: 100.0 mg/kg/injection, schedule: Q04DX002 (ip), vehicle: Klucel (hydroxypropylcellulose) (HPC)",98 % of control
same,T/C,"endpoint: mean survival time, dose: 200.0 mg/kg/injection, schedule: Q04DX002 (ip), vehicle: Klucel (hydroxypropylcellulose) (HPC)",103 % of control
same,T/C,"endpoint: mean survival time, dose: 400.0 mg/kg/injection, schedule: Q04DX002 (ip), vehicle: Klucel (hydroxypropylcellulose) (HPC)",92 % of control
CN(C)CCCNC(=O)c1ccc(N)cc1,T/C,"endpoint: mean survival time, dose: 100.0 mg/kg/injection, schedule: Q04DX002 (ip), vehicle: saline",102 % of control
same,T/C,"endpoint: mean survival time, dose: 200.0 mg/kg/injection, schedule: Q04DX002 (ip), vehicle: saline",105 % of control
same,T/C,"endpoint: mean survival time, dose: 400.0 mg/kg/injection, schedule: Q04DX002 (ip), vehicle: saline",97 % of control
Cc1cn(C2CC3O[P@](=S)(Nc4ccccc4)OCC3O2)c(=O)[nH]c1=O (some centres undefined),T/C,"endpoint: median survival time, dose: 12.75 mg/kg/injection, schedule: Q01DX005 (ip), vehicle: saline with Tween-80",100 % of control
same,T/C,"endpoint: median survival time, dose: 25.5 mg/kg/injection, schedule: Q01DX005 (ip), vehicle: saline with Tween-80",100 % of control
same,T/C,"endpoint: median survival time, dose: 51.0 mg/kg/injection, schedule: Q01DX005 (ip), vehicle: saline with Tween-80",100 % of control
same,T/C,"endpoint: median survival time, dose: 102.0 mg/kg/injection, schedule: Q01DX005 (ip), vehicle: saline with Tween-80",93 % of control
CN(C)C(=O)c1ccc[n+](CC(=O)NCc2ccccc2)c1,T/C,[9],98 % of control
same,T/C,[10],98 % of control
Cc1ccc(SSc2ccc(C)cc2)cc1,T/C,[11],100 % of control
same,T/C,[12],100 % of control
same,T/C,[13],91 % of control
O=C1CN2CCC1CC2,T/C,[9],102 % of control
same,T/C,[10],107 % of control
Cc1ccc(-n2c(N)cc(=O)[nH]c2=S)nc1,T/C,[3],95 % of control
same,T/C,[4],100 % of control
same,T/C,[5],95 % of control
COC(=O)C(CSC(c1ccccc1)(c1ccccc1)c1ccccc1)NC(=O)CCNC(=O)OCc1ccccc1 (centres undefined),T/C,"endpoint: mean survival time, dose: 12.5 mg/kg/injection, schedule: Q01DX009 (ip), vehicle: water",93 % of control
same,T/C,"endpoint: mean survival time, dose: 25.0 mg/kg/injection, schedule: Q01DX009 (ip), vehicle: water",91 % of control
same,T/C,"endpoint: mean survival time, dose: 50.0 mg/kg/injection, schedule: Q01DX009 (ip), vehicle: water",90 % of control
same,T/C,"endpoint: mean survival time, dose: 100.0 mg/kg/injection, schedule: Q01DX009 (ip), vehicle: water",90 % of control
CC(=O)Nc1cccc(N=NN(C)C)c1,T/C,"endpoint: mean survival time, dose: 12.5 mg/kg/injection, schedule: Q01DX009 (ip), vehicle: Klucel (hydroxypropylcellulose) (HPC)",113 % of control
same,T/C,"endpoint: mean survival time, dose: 50.0 mg/kg/injection, schedule: Q01DX009 (ip), vehicle: Klucel (hydroxypropylcellulose) (HPC)",151 % of control
same,T/C,"endpoint: mean survival time, dose: 200.0 mg/kg/injection, schedule: Q01DX009 (ip), vehicle: Klucel (hydroxypropylcellulose) (HPC)",87 % of control
CC(C)(C)N1C2CCCC21 (centres undefined),T/C,"endpoint: mean survival time, dose: 5.0 mg/kg/injection, schedule: Q01DX001 (ip), vehicle: saline",106 % of control
same,T/C,"endpoint: mean survival time, dose: 5.0 mg/kg/injection, schedule: Q01DX009 (ip), vehicle: saline",102 % of control
same,T/C,"endpoint: mean survival time, dose: 10.0 mg/kg/injection, schedule: Q01DX001 (ip), vehicle: saline",106 % of control
same,T/C,"endpoint: mean survival time, dose: 10.0 mg/kg/injection, schedule: Q01DX009 (ip), vehicle: saline",102 % of control
same,T/C,"endpoint: mean survival time, dose: 20.0 mg/kg/injection, schedule: Q01DX001 (ip), vehicle: saline",95 % of control
same,T/C,"endpoint: mean survival time, dose: 20.0 mg/kg/injection, schedule: Q01DX009 (ip), vehicle: saline",100 % of control
O=C1CCC(=O)N1CC(O)COc1ccc(Cl)cc1 (centres undefined),T/C,[3],95 % of control
same,T/C,[4],98 % of control
same,T/C,[5],95 % of control
O=c1[nH]cnc2c1ncn2C1OC(CO)C(O)C1O.[Ag+] (centres undefined),T/C,"endpoint: mean survival time, dose: 12.5 mg/kg/injection, schedule: Q01DX005 (ip), vehicle: other",92 % of control
same,T/C,"endpoint: mean survival time, dose: 25.0 mg/kg/injection, schedule: Q01DX005 (ip), vehicle: other",98 % of control
same,T/C,"endpoint: mean survival time, dose: 50.0 mg/kg/injection, schedule: Q01DX005 (ip), vehicle: other",87 % of control
N#Cc1c(F)c(F)c(C#N)c(F)c1F,T/C,"endpoint: mean survival time, dose: 5.0 mg/kg/injection, schedule: Q04DX003 (ip), vehicle: Klucel (hydroxypropylcellulose) (HPC)",104 % of control
same,T/C,"endpoint: mean survival time, dose: 10.0 mg/kg/injection, schedule: Q04DX003 (ip), vehicle: Klucel (hydroxypropylcellulose) (HPC)",106 % of control
same,T/C,"endpoint: mean survival time, dose: 20.0 mg/kg/injection, schedule: Q04DX003 (ip), vehicle: Klucel (hydroxypropylcellulose) (HPC)",102 % of control
same,T/C,"endpoint: mean survival time, dose: 40.0 mg/kg/injection, schedule: Q04DX003 (ip), vehicle: Klucel (hydroxypropylcellulose) (HPC)",104 % of control
O=C(Nc1ccc(Oc2ccccc2)cc1)c1ccc(C(=O)Nc2ccc(Oc3ccccc3)cc2)cc1,T/C,[11],92 % of control
same,T/C,[12],92 % of control
same,T/C,[13],95 % of control
ClCCCCOCCCCCl,T/C,[6],95 % of control
same,T/C,[3],97 % of control
same,T/C,[7],95 % of control
same,T/C,[4],95 % of control
same,T/C,[8],117 % of control
same,T/C,[5],97 % of control
CC(=O)OCCN(CCOC(C)=O)CCOC(C)=O,T/C,"endpoint: mean survival time, dose: 100.0 mg/kg/injection, schedule: Q04DX003 (ip), vehicle: Klucel (hydroxypropylcellulose) (HPC)",95 % of control
CCCCOC(=O)Nc1ccccn1,T/C,"endpoint: mean survival time, dose: 100.0 mg/kg/injection, schedule: Q04DX002 (ip), vehicle: saline with Tween-80",101 % of control
same,T/C,"endpoint: mean survival time, dose: 200.0 mg/kg/injection, schedule: Q04DX002 (ip), vehicle: saline with Tween-80",104 % of control
CC1=CC(=O)C=C/C1=N/S(=O)(=O)c1ccccc1,T/C,"endpoint: mean survival time, dose: 25.0 mg/kg/injection, schedule: Q01DX001 (ip), vehicle: saline with Tween-80",93 % of control
same,T/C,"endpoint: mean survival time, dose: 50.0 mg/kg/injection, schedule: Q01DX001 (ip), vehicle: saline with Tween-80",90 % of control
same,T/C,[1],97 % of control
O=C(Cl)C12CC3CC(CC(C3)C1)C2,T/C,"endpoint: mean survival time, dose: 12.5 mg/kg/injection, schedule: Q01DX009 (ip), vehicle: other",94 % of control
same,T/C,"endpoint: mean survival time, dose: 25.0 mg/kg/injection, schedule: Q01DX009 (ip), vehicle: other",94 % of control
same,T/C,"endpoint: mean survival time, dose: 50.0 mg/kg/injection, schedule: Q01DX009 (ip), vehicle: other",91 % of control
same,T/C,"endpoint: mean survival time, dose: 100.0 mg/kg/injection, schedule: Q01DX009 (ip), vehicle: other",91 % of control
